Reference: patent US6737383B1, “Herbicidal oxadiazolidines” (priority 1999, dated 2004)

What was measured:
blackgrass = test: Test B pre/postemergence blackgrass; format: in vivo, Alopecurus myosuroides
Summary of the method: (§1)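 Test chemicals in a non-phytotoxic solvent mixture with surfactant were sprayed preemergence onto planted seeds and postemergence onto plants 2 to 18 cm tall (1- to 4-leaf stage). After twelve to sixteen days in a greenhouse, injury was visually rated against untreated controls from 0 (no effect) to 10 (complete control).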

surinam grass = test: Test B pre/postemergence surinam grass; format: in vivo, Brachiaria decumbens
Summary of the method: as §1

cocklebur = test: Test B pre/postemergence cocklebur; format: in vivo, Xanthium strumarium
Summary of the method: as §1

corn = test: Test B pre/postemergence corn; format: in vivo, Zea mays
Summary of the method: as §1

crabgrass = test: Test B pre/postemergence crabgrass; format: in vivo, Digitaria sanguinalis
Summary of the method: as §1

giant foxtail = test: Test B pre/postemergence giant foxtail; format: in vivo, Setaria faberii
Summary of the method: as §1

pigweed = test: Test B pre/postemergence pigweed; format: in vivo, Amaranthus retroflexus
Summary of the method: as §1

rape = test: Test B pre/postemergence rape; format: in vivo, Brassica napus
Summary of the method: as §1

soybean = test: Test B pre/postemergence soybean; format: in vivo, Glycine max
Summary of the method: as §1

sugar beet = test: Test B pre/postemergence sugar beet; format: in vivo, Beta vulgaris
Summary of the method: as §1

wheat = test: Test B pre/postemergence wheat; format: in vivo, Triticum aestivum
Summary of the method: as §1

purple nutsedge = test: Test B pre/postemergence purple nutsedge; format: in vivo, Cyperus rotundus
Summary of the method: as §1

rice = test: Test B flood test rice; format: in vivo, Oryza sativa
Summary of the method: (§2)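 Flood test on plants grown to the 2-leaf stage; treated plants kept in greenhouse twelve to sixteen days, then visually rated against controls on a 0 (no effect) to 10 (complete control) scale.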

smallflower flatsedge = test: Test B flood test smallflower flatsedge; format: in vivo, Cyperus difformis
Summary of the method: as §2

duck salad = test: Test B flood test duck salad; format: in vivo, Heteranthera limosa
Summary of the method: as §2

bamyardgrass = test: Test B flood test barnyardgrass; format: in vivo, Echinochloa crus-galli
Summary of the method: as §2

[1] = Postemergence, Rate 62 g/ha, scale 0 to 10, 0 is no effect, 10 is complete control
[2] = Postemergence, Rate 250 g/ha, scale 0 to 10, 0 no effect, 10 complete control
[3] = Preemergence, Rate 31 g/ha, visual rating, scale 0 to 10 (0 no effect, 10 complete control)
[4] = Preemergence, Rate 62 g/ha, scale 0 to 10, 0 is no effect, 10 is complete control
[5] = Preemergence, Rate 125 g/ha, scale 0 to 10 (0 no effect, 10 complete control)
[6] = Preemergence, Rate 250 g/ha, scale of 0 to 10 where 0 is no effect and 10 is complete control
[7] = Rate 31 g/ha, Postemergence, scale 0 to 10
[8] = Rate 125 g/ha, Postemergence, scale 0 to 10, 0 no effect, 10 complete control
[9] = Rate 125 g/ha, Postemergence section (flood test species), scale 0 to 10, 0 no effect, 10 complete control
[10] = Rate 500 g/ha, Postemergence section of Table B, 0 to 10 scale (0 no effect, 10 complete control)
[11] = flood test, listed under Postemergence, Rate 250 g/ha, scale 0 to 10, 0 no effect, 10 complete control

How did the “Blackgrass plant response rating” value (blackgrass; [1]) turn out when `COc1ccc(-n2c(=O)on(C(=O)N(c3ccc(F)cc3F)C(C)C)c2=O)c(OC)c1` [Compound 32] was run?
The value was 0.

What about the “Blackgrass plant response rating” value (blackgrass; [2]) of the same compound?
The value was 7.

And the “Blackgrass plant response rating” value (blackgrass; [3])?
The value was 0.

What about the “Plant response rating, Blackgrass” value (blackgrass; [4]) of the same compound?
The value was 1.

And the “Plant response rating, Blackgrass” value (blackgrass; [5])?
The value was 2.

And the “Plant response rating, Blackgrass” value (blackgrass; [6])?
The value was 4.

And the “Blackgrass plant response rating” value (blackgrass; [7])?
The value was 0.

And the “Blackgrass plant response rating” value (blackgrass; [8])?
The value was 0.

And the “B. signalgrass plant response rating” value (surinam grass; [1])?
The value was 0.

What about the “B. signalgrass plant response rating” value (surinam grass; [2]) of the same compound?
Its value is 0.

What about the “B. signalgrass plant response rating” value (surinam grass; [3]) of the same compound?
The value was 0.

What about the “Plant response rating, B. signalgrass” value (surinam grass; [4]) of the same compound?
The value was 0.

What about the “Plant response rating, B. signalgrass” value (surinam grass; [5]) of the same compound?
The value was 0.

And the “Plant response rating, B. signalgrass” value (surinam grass; [6])?
Its value is 2.

And the “B. signalgrass plant response rating” value (surinam grass; [7])?
Its value is 0.

What about the “B. signalgrass plant response rating” value (surinam grass; [8]) of the same compound?
Its value is 0.

What about the “Cocklebur plant response rating” value (cocklebur; [1]) of the same compound?
The value was 0.

And the “Cocklebur plant response rating” value (cocklebur; [2])?
The value was 0.

And the “Cocklebur plant response rating” value (cocklebur; [3])?
Its value is 0.

What about the “Plant response rating, Cocklebur” value (cocklebur; [4]) of the same compound?
The value was 0.

What about the “Plant response rating, Cocklebur” value (cocklebur; [5]) of the same compound?
Its value is 0.

What about the “Plant response rating, Cocklebur” value (cocklebur; [6]) of the same compound?
Its value is 0.

And the “Cocklebur plant response rating” value (cocklebur; [7])?
Its value is 0.

And the “Cocklebur plant response rating” value (cocklebur; [8])?
The value was 0.

What about the “Corn plant response rating” value (corn; [1]) of the same compound?
The value was 0.

What about the “Corn plant response rating” value (corn; [2]) of the same compound?
The value was 0.

And the “Corn plant response rating” value (corn; [3])?
The value was 0.

And the “Plant response rating, Corn” value (corn; [4])?
The value was 0.

And the “Plant response rating, Corn” value (corn; [5])?
Its value is 0.

What about the “Plant response rating, Corn” value (corn; [6]) of the same compound?
Its value is 0.

And the “Corn plant response rating” value (corn; [7])?
Its value is 0.

What about the “Corn plant response rating” value (corn; [8]) of the same compound?
Its value is 0.

And the “Crabgrass plant response rating” value (crabgrass; [1])?
The value was 0.

What about the “Crabgrass plant response rating” value (crabgrass; [2]) of the same compound?
Its value is 3.

What about the “Crabgrass plant response rating” value (crabgrass; [3]) of the same compound?
Its value is 0.

What about the “Plant response rating, Crabgrass” value (crabgrass; [4]) of the same compound?
Its value is 4.

And the “Plant response rating, Crabgrass” value (crabgrass; [5])?
Its value is 6.

And the “Plant response rating, Crabgrass” value (crabgrass; [6])?
The value was 9.

And the “Crabgrass plant response rating” value (crabgrass; [7])?
The value was 0.

And the “Crabgrass plant response rating” value (crabgrass; [8])?
The value was 2.

What about the “Giant foxtail plant response rating” value (giant foxtail; [1]) of the same compound?
Its value is 0.

What about the “Giant foxtail plant response rating” value (giant foxtail; [2]) of the same compound?
Its value is 0.

And the “Giant foxtail plant response rating” value (giant foxtail; [3])?
The value was 1.

What about the “Plant response rating, Giant foxtail” value (giant foxtail; [4]) of the same compound?
Its value is 4.

What about the “Plant response rating, Giant foxtail” value (giant foxtail; [5]) of the same compound?
Its value is 8.

And the “Plant response rating, Giant foxtail” value (giant foxtail; [6])?
The value was 9.

What about the “Giant foxtail plant response rating” value (giant foxtail; [7]) of the same compound?
The value was 0.

And the “Giant foxtail plant response rating” value (giant foxtail; [8])?
The value was 0.

And the “Redroot pigweed plant response rating” value (pigweed; [1])?
Its value is 0.

And the “Redroot pigweed plant response rating” value (pigweed; [2])?
The value was 0.

What about the “Redroot pigweed plant response rating” value (pigweed; [3]) of the same compound?
The value was 0.

What about the “Plant response rating, Redroot pigweed” value (pigweed; [4]) of the same compound?
Its value is 0.

What about the “Plant response rating, Redroot pigweed” value (pigweed; [5]) of the same compound?
Its value is 0.

What about the “Plant response rating, Redroot pigweed” value (pigweed; [6]) of the same compound?
The value was 0.

And the “Redroot pigweed plant response rating” value (pigweed; [7])?
The value was 0.

What about the “Redroot pigweed plant response rating” value (pigweed; [8]) of the same compound?
The value was 0.

And the “Rape plant response rating” value (rape; [1])?
Its value is 0.

What about the “Rape plant response rating” value (rape; [2]) of the same compound?
Its value is 0.

And the “Rape plant response rating” value (rape; [3])?
The value was 0.

What about the “Plant response rating, Rape” value (rape; [4]) of the same compound?
Its value is 0.

What about the “Plant response rating, Rape” value (rape; [5]) of the same compound?
The value was 0.

And the “Plant response rating, Rape” value (rape; [6])?
The value was 0.

What about the “Rape plant response rating” value (rape; [7]) of the same compound?
The value was 0.

And the “Rape plant response rating” value (rape; [8])?
The value was 0.

And the “Soybean plant response rating” value (soybean; [1])?
Its value is 2.

What about the “Soybean plant response rating” value (soybean; [2]) of the same compound?
Its value is 2.

What about the “Soybean plant response rating” value (soybean; [3]) of the same compound?
Its value is 0.

What about the “Plant response rating, Soybean” value (soybean; [4]) of the same compound?
The value was 0.

What about the “Plant response rating, Soybean” value (soybean; [5]) of the same compound?
Its value is 0.

And the “Plant response rating, Soybean” value (soybean; [6])?
Its value is 0.

What about the “Soybean plant response rating” value (soybean; [8]) of the same compound?
Its value is 2.

What about the “Sugarbeets plant response rating” value (sugar beet; [1]) of the same compound?
Its value is 0.

What about the “Sugarbeets plant response rating” value (sugar beet; [2]) of the same compound?
The value was 0.

What about the “Sugarbeets plant response rating” value (sugar beet; [3]) of the same compound?
Its value is 0.

And the “Plant response rating, Sugarbeets” value (sugar beet; [4])?
The value was 0.

And the “Plant response rating, Sugarbeets” value (sugar beet; [5])?
The value was 0.

And the “Plant response rating, Sugarbeets” value (sugar beet; [6])?
The value was 0.

And the “Sugarbeets plant response rating” value (sugar beet; [8])?
Its value is 0.

What about the “Wheat plant response rating” value (wheat; [1]) of the same compound?
The value was 0.

What about the “Wheat plant response rating” value (wheat; [2]) of the same compound?
The value was 0.

What about the “Wheat plant response rating” value (wheat; [3]) of the same compound?
Its value is 0.

What about the “Plant response rating, Wheat” value (wheat; [4]) of the same compound?
The value was 0.

What about the “Plant response rating, Wheat” value (wheat; [5]) of the same compound?
The value was 0.

And the “Plant response rating, Wheat” value (wheat; [6])?
Its value is 0.

And the “Wheat plant response rating” value (wheat; [8])?
Its value is 0.

What about the “Nutsedge plant response rating” value (purple nutsedge; [1]) of the same compound?
Its value is 0.

What about the “Nutsedge plant response rating” value (purple nutsedge; [2]) of the same compound?
The value was 0.

What about the “Nutsedge plant response rating” value (purple nutsedge; [3]) of the same compound?
Its value is 0.

What about the “Plant response rating, Nutsedge” value (purple nutsedge; [4]) of the same compound?
Its value is 0.

What about the “Plant response rating, Nutsedge” value (purple nutsedge; [5]) of the same compound?
The value was 0.

And the “Plant response rating, Nutsedge” value (purple nutsedge; [6])?
The value was 0.

What about the “Nutsedge plant response rating” value (purple nutsedge; [7]) of the same compound?
The value was 0.

And the “Nutsedge plant response rating” value (purple nutsedge; [8])?
Its value is 0.

What about the “Rice plant response rating” value (rice; [1]) of the same compound?
Its value is 0.

What about the “Rice plant response rating” value (rice; [9]) of the same compound?
Its value is 0.

What about the “Rice plant response rating” value (rice; [10]) of the same compound?
Its value is 0.

And the “Rice plant response rating” value (rice; [11])?
Its value is 0.

What about the “S. Flatsedge plant response rating” value (smallflower flatsedge; [1]) of the same compound?
Its value is 0.

What about the “S. Flatsedge plant response rating” value (smallflower flatsedge; [9]) of the same compound?
The value was 0.

What about the “S. Flatsedge plant response rating” value (smallflower flatsedge; [11]) of the same compound?
Its value is 2.

And the “Ducksalad plant response rating” value (duck salad; [1])?
The value was 0.

And the “Ducksalad plant response rating” value (duck salad; [9])?
The value was 0.

What about the “Ducksalad plant response rating” value (duck salad; [10]) of the same compound?
Its value is 2.

What about the “Ducksalad plant response rating” value (duck salad; [11]) of the same compound?
Its value is 0.

What about the “Barnyardgrass plant response rating” value (bamyardgrass; [1]) of the same compound?
Its value is 0.

What about the “Barnyardgrass plant response rating” value (bamyardgrass; [9]) of the same compound?
Its value is 0.

And the “Barnyardgrass plant response rating” value (bamyardgrass; [10])?
The value was 9.

And the “Barnyardgrass plant response rating” value (bamyardgrass; [11])?
Its value is 8.
